Like-named read-outs stand apart in the source and are kept apart here.

Assay [1] concerns THP-1 cells. The assay can be described thus: Measurement of IL-1β production, hTRF protocol (second alternative procedure), THP-1 cells. Format: cell-based, human. The note with it: Homo sapiens, THP-1, IL-1β production, read-out: NLRP3 hILIB EC50. The method, boiled down: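 Compounds, dilution series starting at a final 10 μM, were incubated 2 hours at 37° C with PMA-differentiated THP-1 cells (50 ng/ml overnight; 50,000 cells/well, 2% FBS RPMI). Released IL-1β quantified in supernatant by hTRF kit with 1:40 antibody dilution, 4° C overnight, 665/615 nm ratio.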

Assay [2] has as its target T1, TLR7 (Homo sapiens, UniProt Q9NYK1).
T1 construct: human HEK-Blue cells co-expressing a TLR7 or TLR8 gene
T1 sequence (Q9NYK1 27-1049): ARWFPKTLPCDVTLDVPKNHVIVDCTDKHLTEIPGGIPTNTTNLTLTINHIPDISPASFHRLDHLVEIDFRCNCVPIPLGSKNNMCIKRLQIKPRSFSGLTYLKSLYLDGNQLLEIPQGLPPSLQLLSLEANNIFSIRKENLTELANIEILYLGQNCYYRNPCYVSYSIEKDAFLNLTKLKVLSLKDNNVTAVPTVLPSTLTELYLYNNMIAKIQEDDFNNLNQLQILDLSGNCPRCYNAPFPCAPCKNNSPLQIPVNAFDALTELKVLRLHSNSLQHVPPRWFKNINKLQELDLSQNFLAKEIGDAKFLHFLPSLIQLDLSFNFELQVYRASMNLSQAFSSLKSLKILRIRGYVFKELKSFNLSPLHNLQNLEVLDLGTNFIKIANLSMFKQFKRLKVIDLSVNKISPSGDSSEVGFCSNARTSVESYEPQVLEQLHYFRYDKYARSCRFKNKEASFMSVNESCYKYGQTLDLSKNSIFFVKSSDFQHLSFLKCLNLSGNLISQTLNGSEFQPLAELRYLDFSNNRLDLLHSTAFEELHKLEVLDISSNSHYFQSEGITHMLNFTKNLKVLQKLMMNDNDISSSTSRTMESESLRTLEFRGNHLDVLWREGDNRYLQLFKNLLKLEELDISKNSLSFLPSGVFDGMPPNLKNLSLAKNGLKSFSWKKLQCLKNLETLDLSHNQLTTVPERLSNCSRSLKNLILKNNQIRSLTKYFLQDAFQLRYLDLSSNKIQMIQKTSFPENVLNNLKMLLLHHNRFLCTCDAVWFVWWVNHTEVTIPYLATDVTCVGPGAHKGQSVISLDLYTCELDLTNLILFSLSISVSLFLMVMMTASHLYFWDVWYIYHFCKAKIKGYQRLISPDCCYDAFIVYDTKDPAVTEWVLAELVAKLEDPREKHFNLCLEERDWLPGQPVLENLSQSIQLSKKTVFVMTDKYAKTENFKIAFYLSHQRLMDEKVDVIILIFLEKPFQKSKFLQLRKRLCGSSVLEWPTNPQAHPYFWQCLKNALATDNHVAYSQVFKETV
The assay can be described thus: In vitro human TLR7 binding reporter assay (HEK-Blue, NF-kB/AP1-inducible SEAP). Format: cell-based. The note with it: read-out: TLR7 Agonist EC50. In a few lines: (§1)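 Cells are seeded and grown for 24 h. Compounds or DMSO are then added and incubated 18 h at 37 °C. Quanti-Blue is added, and SEAP is read after thirty minutes. EC50 values are normalized, with RLU from 50 μM reference standard setting 100% Ymax.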
(Reporter assays use an easily measured gene product as a stand-in for the process of interest.)

Assay [3] deals with T2, TLR8 (Homo sapiens, UniProt Q9NR97).
T2 construct: human HEK-Blue cells co-expressing a TLR7 or TLR8 gene
T2 sequence (Q9NR97 27-1041): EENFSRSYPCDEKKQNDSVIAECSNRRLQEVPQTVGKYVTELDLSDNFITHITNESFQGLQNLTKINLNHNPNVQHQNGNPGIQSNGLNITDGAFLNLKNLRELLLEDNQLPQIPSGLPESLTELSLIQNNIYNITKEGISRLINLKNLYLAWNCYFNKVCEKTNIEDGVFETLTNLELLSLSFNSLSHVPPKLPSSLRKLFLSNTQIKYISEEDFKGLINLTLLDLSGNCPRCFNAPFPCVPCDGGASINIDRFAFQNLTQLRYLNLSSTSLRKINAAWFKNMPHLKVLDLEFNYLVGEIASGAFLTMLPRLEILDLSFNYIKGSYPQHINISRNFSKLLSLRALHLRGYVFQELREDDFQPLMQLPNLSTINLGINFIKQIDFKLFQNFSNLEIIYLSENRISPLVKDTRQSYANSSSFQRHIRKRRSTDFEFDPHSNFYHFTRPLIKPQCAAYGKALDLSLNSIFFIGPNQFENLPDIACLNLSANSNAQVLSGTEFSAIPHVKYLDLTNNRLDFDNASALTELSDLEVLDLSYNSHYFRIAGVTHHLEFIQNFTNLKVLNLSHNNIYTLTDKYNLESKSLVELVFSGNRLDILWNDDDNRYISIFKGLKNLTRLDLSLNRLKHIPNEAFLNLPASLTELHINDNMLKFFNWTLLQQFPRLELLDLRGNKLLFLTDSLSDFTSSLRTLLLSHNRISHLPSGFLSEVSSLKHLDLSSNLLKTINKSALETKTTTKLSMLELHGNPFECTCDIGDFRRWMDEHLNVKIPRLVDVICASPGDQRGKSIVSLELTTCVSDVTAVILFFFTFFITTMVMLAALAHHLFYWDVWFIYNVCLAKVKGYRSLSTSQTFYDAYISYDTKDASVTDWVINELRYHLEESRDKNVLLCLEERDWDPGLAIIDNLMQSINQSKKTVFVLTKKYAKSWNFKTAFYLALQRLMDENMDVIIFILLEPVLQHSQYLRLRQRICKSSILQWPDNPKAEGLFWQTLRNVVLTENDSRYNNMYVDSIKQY
The assay can be described thus: In vitro human TLR8 binding reporter assay (HEK-Blue, NF-kB/AP1-inducible SEAP). The note with it: read-out: TLR8 Agonist EC50. The format is cell-based. The method, boiled down:
as §1

Take `CNC(=O)C1(Cn2cc3c(N)nc4cc(-c5ccn[nH]5)ccc4c3n2)CC1` [Example 608]: the results for the EC50 in assay [1] (human cells), in assay [2] (activity range) and in assay [3] (activity range) were 0.7 µM, over 100 µM and over 100 µM, respectively.

On to `Nc1nc2cc(-n3cccn3)ccc2c2c1cnn2CCO` [Example 250, 2-(4-amino-7-(1H-pyrazol-1-yl)-1H-pyrazolo[4,3-c]quinolin-1-yl)ethan-1-ol], for which the EC50 was 1.95 µM in assay [1] (human), over 100 µM in assay [2] (activity range class) and over 100 µM in assay [3] (activity range class).

With `Nc1nc2cc(-c3cc[nH]n3)ccc2c2[nH]c(CNC(=O)C3CCCCO3)cc12` (stereo not drawn) [Example 413], the EC50 in assay [1] (human cells) was 1.92 µM; in assay [2] (activity range) it was over 100 µM; in assay [3] (activity range), over 100 µM.

For `Nc1nc2cc(-c3cc[nH]n3)ccc2c2nn(C3CCCOC3)cc12` (stereo not drawn) [Example 312], the EC50 in assay [1] (human) is 0.22 µM; in assay [2] (activity range class) it was over 100 µM; in assay [3] (activity range class) it was over 100 µM.

Consider `CC(Cn1cc2c(N)nc3cc(-c4cc[nH]n4)ccc3c2n1)C(=O)N1CC(O)C1` (stereo not drawn) [Example 613], for which the EC50 in assay [1] (human cells) is 23.4 µM; in assay [2] (activity range) it was over 100 µM; in assay [3] (activity range) it was over 100 µM.

Consider `CC(Cn1cc2c(N)nc3cc(-c4ccn[nH]4)ccc3c2n1)NS(C)(=O)=O` (stereo not drawn) [Example 301], for which the EC50 in assay [1] (human) is 1.4 µM; in assay [2] (activity range class), over 100 µM; in assay [3] (activity range class), over 100 µM.

In the case of `Cc1nc(C(=O)NCCn2cc3c(n2)c(N)nc2cc(-c4cccs4)ccc23)co1` [Example 128, N-{2-[4-amino-7-(thiophen-2-yl)-2H-pyrazolo[3,4-c]quinolin-2-yl]ethyl}-2-methyl-1,3-oxazole-4-carboxamide], the EC50 in assay [1] (human) is 0.36 µM; in assay [2] (activity range class) it was over 100 µM; in assay [3] (activity range class), over 100 µM.

As for `Nc1nc2cc(-c3cc[nH]n3)ccc2c2nn(CCC(=O)N3CC(O)C3)cc12` [Example 512], the EC50 in assay [1] (human cells) was 5.82 µM; in assay [2] (activity range) it was over 100 µM; in assay [3] (activity range), over 100 µM.

`Nc1nc2cc(-c3cc[nH]n3)ccc2c2nn(CC3CCOC3)cc12` (single isomer, unassigned) [Example 327]: the EC50 was 0.7 µM in assay [1] (human), over 100 µM in assay [2] (activity range class) and over 100 µM in assay [3] (activity range class).

With `CN(C)CCn1nc2c(N)nc3cc(-c4ccn[nH]4)ccc3c2n1` [Example 161], the half-maximal effective concentration (EC50) in assay [1] (human) is 5.82 µM; in assay [2] (activity range class), over 100 µM; in assay [3] (activity range class), over 100 µM.

Take `Nc1nc2cc(-c3cc[nH]n3)ccc2c2cn(CC(=O)Nc3ccccc3F)nc12` [Example 164]: the results for the EC50 in assay [1] (human), in assay [2] (activity range class) and in assay [3] (activity range class) were 0.25 µM, over 100 µM and over 100 µM, respectively.

For `C[C@H](CO)Cn1cc2c(n1)c(N)nc1cc(-c3cc[nH]n3)ccc12` [Example 399], the concentration giving a half-maximal response (EC50) in assay [1] (human cells) was 0.23 µM; in assay [2] (activity range) it was over 100 µM; in assay [3] (activity range) it was over 100 µM.

As for `CC(C)(Cn1cc2c(N)nc3cc(-c4ccn[nH]4)ccc3c2n1)C(N)=O` [Example 604], the values for the half-maximal effective concentration (EC50) in assay [1] (human cells), in assay [2] (activity range) and in assay [3] (activity range) were 0.85 µM, over 100 µM and over 100 µM, respectively.

For `CS(=O)(=O)CCn1cc2c(n1)c(N)nc1cc(-c3cc[nH]n3)ccc12` [Example 170], the concentration for a half-maximal effect (EC50) is 1.98 µM in assay [1] (human), over 100 µM in assay [2] (activity range class) and over 100 µM in assay [3] (activity range class).

In the case of `NC(=O)Cn1cc2c(N)nc3cc(-n4cccn4)ccc3c2n1` [Example 555], the concentration giving a half-maximal response (EC50) in assay [1] (human cells) was 0.33 µM; in assay [2] (activity range), over 100 µM; in assay [3] (activity range), over 100 µM.

As for `Nc1nc2cc(-c3cc[nH]n3)ccc2c2c1cnn2CC(O)CO` (stereo not drawn) [Example 235], the EC50 in assay [1] (human) was 12.5 µM; in assay [2] (activity range class), over 100 µM; in assay [3] (activity range class) it was over 100 µM.

As to `Nc1nc2cc(-c3cc[nH]n3)ccc2c2c1cnn2CCCN1CCOCC1` [Example 214], the concentration for a half-maximal effect (EC50) is 4.55 µM in assay [1] (human), over 100 µM in assay [2] (activity range class) and over 100 µM in assay [3] (activity range class).

For `CNC(=O)C(C)(C)n1cc2c(N)nc3cc(-c4cc[nH]n4)ccc3c2n1` [Example 513], the EC50 in assay [1] (human cells) was 1.28 µM; in assay [2] (activity range), over 100 µM; in assay [3] (activity range) it was over 100 µM.

As to `CC(C(=O)NCc1cccnc1)n1cc2c(N)nc3cc(-c4ccn[nH]4)ccc3c2n1` (stereo not drawn) [Example 565], the EC50 in assay [1] (human cells) was 4.18 µM; in assay [2] (activity range) it was over 100 µM; in assay [3] (activity range), over 100 µM.

With `COC1CN(Cc2cc3c(N)nc4cc(-c5cc[nH]n5)ccc4c3[nH]2)C1` [Example 479], the EC50 is 0.08 µM in assay [1] (human cells), over 100 µM in assay [2] (activity range) and over 100 µM in assay [3] (activity range).

For the compound `Nc1nc2cc(-c3ccn[nH]3)ccc2c2[nH]c(CCNC(=O)c3ccccn3)cc12` [Example 155, N-[2-[4-amino-7-(1H-pyrazol-5-yl)-1H-pyrrolo[3,2-c]quinolin-2-yl]ethyl]pyridine-2-carboxamide], the EC50 in assay [1] (human) is 0.01 µM; in assay [2] (activity range class), over 100 µM; in assay [3] (activity range class) it was over 100 µM.

Take `CC(O)CCn1cc2c(N)nc3cc(-c4ccn[nH]4)ccc3c2n1` (stereo not drawn) [Example 284]: the EC50 in assay [1] (human) is 0.25 µM; in assay [2] (activity range class) it was over 100 µM; in assay [3] (activity range class), over 100 µM.

For the compound `Cc1cc(Cn2cc3c(N)nc4cc(-c5cc[nH]n5)ccc4c3n2)no1` [Example 226], the EC50 in assay [1] (human) is 0.44 µM; in assay [2] (activity range class), over 100 µM; in assay [3] (activity range class), over 100 µM.

As to `CS(=O)(=O)NCCn1cc2c(n1)c(N)nc1cc(-c3cc[nH]n3)ccc12` [Example 113, N-{2-[4-amino-7-(1H-pyrazol-3-yl)-2H-pyrazolo[3,4-c]quinolin-2-yl]ethyl}methanesulfonamide], the figures for the concentration giving a half-maximal response (EC50) in assay [1] (human), in assay [2] (activity range class) and in assay [3] (activity range class) were 3.83 µM, 20 to 100 µM and over 100 µM, respectively.

Consider `Nc1nc2cc(-c3cc[nH]n3)ccc2c2nn(CCC(=O)N3CCCC3)cc12` [Example 508], for which the half-maximal effective concentration (EC50) in assay [1] (human cells) is 7.37 µM; in assay [2] (activity range), over 100 µM; in assay [3] (activity range) it was over 100 µM.

Regarding `Nc1nc2cc(-c3cc[nH]n3)ccc2c2cn(CCCn3ccccc3=O)nc12` [Example 4, 1-{3-[4-amino-7-(1H-pyrazol-3-yl)-2H-pyrazolo[3,4-c]quinolin-2-yl]propyl}-1,2-dihydropyridin-2-one], the EC50 in assay [1] (human) was 16.8 µM; in assay [2] (activity range class), over 100 µM; in assay [3] (activity range class), over 100 µM.

Broadly, the EC50 is the concentration needed to bring the measured effect to its halfway point.

These data come from patent US12037344B2, “NLRP3 modulators” (INNATE TUMOR IMMUNITY, INC., priority 2018, dated 2024).
